Source: ChEMBL document CHEMBL1153328, “5-Aminomethylbenzimidazoles as potent ITK antagonists” (Bioorg Med Chem Lett, 2009)
In brackets after ≈: the same amount, converted by molar mass.

Tests used:
[1] = biological target: T1, Tyrosine-protein kinase ITK/TSK (Homo sapiens, UniProt Q08881); assay: Binding affinity to ITK by DELFIA-based molecular assay
T1 sequence (Q08881 whole entry): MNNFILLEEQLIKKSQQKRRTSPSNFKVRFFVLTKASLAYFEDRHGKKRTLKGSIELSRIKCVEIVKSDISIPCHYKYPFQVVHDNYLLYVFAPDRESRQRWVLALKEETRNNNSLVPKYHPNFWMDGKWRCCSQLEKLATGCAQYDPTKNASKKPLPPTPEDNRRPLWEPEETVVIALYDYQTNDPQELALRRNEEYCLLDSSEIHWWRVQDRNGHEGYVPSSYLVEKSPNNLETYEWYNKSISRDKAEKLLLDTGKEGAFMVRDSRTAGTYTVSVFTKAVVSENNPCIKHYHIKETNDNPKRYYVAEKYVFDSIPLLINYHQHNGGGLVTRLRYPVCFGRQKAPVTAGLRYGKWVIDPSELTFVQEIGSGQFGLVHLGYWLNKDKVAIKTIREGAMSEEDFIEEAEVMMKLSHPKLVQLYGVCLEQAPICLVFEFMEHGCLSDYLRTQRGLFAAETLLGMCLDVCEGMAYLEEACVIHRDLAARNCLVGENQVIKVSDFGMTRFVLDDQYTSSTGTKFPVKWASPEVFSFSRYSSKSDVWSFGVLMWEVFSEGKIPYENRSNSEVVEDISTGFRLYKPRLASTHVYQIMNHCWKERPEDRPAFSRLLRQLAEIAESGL

Blood = assay: Inhibition of staphylococcal entertoxin B-stimulated IL2 secretion in human whole blood; format: functional, tissue-based
T-cell = assay: Inhibition of anti-CD3 and anti-CD28 monoclonal antibody-stimulated IL2 secretion in human CD4+ T cells; format: functional, cell-based
Insulin receptor = Insulin receptor (Homo sapiens, UniProt P06213); assay: Inhibition of IRK
Chain of Insulin receptor (P06213 28-758 limits assumed): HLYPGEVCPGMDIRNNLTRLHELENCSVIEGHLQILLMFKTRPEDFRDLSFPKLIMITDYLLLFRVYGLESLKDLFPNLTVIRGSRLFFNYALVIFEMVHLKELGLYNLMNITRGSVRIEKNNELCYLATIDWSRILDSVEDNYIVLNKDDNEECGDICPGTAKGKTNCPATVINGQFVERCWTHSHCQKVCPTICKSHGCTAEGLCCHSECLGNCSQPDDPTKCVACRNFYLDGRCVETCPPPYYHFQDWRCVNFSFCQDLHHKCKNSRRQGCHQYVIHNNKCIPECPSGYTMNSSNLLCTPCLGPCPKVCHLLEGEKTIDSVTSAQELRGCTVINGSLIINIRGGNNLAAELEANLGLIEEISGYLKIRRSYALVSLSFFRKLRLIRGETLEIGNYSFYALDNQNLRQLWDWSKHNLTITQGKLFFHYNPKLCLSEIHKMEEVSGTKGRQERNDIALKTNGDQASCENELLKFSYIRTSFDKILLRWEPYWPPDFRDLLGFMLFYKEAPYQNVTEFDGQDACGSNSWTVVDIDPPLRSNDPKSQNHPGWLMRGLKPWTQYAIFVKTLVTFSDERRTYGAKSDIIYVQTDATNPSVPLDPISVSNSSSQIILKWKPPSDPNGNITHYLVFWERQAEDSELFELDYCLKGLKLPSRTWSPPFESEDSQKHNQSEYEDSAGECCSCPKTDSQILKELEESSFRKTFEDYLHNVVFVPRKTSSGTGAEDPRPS
Chain of Insulin receptor (P06213 763-1382 limits assumed): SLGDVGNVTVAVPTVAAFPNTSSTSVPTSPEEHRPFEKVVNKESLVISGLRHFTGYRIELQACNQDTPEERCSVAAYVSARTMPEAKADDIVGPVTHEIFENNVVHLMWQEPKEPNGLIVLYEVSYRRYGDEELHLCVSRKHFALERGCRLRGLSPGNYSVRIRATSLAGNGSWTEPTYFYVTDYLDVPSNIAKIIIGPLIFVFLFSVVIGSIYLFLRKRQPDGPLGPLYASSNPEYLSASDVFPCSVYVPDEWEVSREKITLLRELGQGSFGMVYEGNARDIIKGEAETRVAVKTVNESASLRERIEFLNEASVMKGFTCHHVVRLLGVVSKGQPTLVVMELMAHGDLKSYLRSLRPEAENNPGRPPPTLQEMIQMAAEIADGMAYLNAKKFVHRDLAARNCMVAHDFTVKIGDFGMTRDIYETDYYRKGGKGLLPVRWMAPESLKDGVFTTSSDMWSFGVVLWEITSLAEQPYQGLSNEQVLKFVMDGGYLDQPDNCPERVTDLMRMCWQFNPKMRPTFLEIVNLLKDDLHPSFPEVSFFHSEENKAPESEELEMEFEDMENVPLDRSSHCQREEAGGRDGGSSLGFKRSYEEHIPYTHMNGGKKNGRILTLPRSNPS

[2] = biological target: T1, Tyrosine-protein kinase ITK/TSK; assay: Inhibition of ITK in presence of 1 mM ATP
[3] = biological target: T1, Tyrosine-protein kinase ITK/TSK; assay: Antagonist activity at human ITK expressed in BTK deficient DT40 cells assessed as inhibition of B cell receptor-stimulated calcium influx; format: functional, cell-based
[4] = AUC (0 to infinity) in Sprague-Dawley rat at 10 mg/kg, po; format: ADME, organism-based; set-up: time infinity, dose 10 mg/kg, route oral; details: plasma
[5] = Terminal half life in Sprague-Dawley rat at 1 mg/kg, iv; format: ADME, organism-based; set-up: dose 1 mg/kg, route intravenous; details: in vivo, read-out: beta t1/2 (converted)
[6] = AUC (0 to infinity) in Sprague-Dawley rat at 1 mg/kg, iv; format: ADME, organism-based; set-up: time infinity, dose 1 mg/kg, route intravenous; details: plasma
[7] = Tmax in Sprague-Dawley rat at 10 mg/kg, po; format: ADME, organism-based; set-up: dose 10 mg/kg, route oral; details: in vivo
[8] = Oral bioavailability in Sprague-Dawley rat at 10 mg/kg; format: ADME, organism-based; details: in vivo
Mus musculus [9] = assay: Inhibition of anti-CD3-stimulated IL4 production in po dosed BALB/c mouse administered 5 hrs before anti-CD3 challenge measured after 3 hrs; format: functional, organism-based
[10] = Volume of distribution at steady state in Sprague-Dawley rat at 1 mg/kg, iv; format: ADME, organism-based; set-up: dose 1 mg/kg, route intravenous; details: in vivo, read-out: Vdss
[11] = Terminal plasma concentration in BALB/c mouse at 5 mg/kg, po after 8 hrs; format: ADME, organism-based; set-up: dose 5 mg/kg, route oral; details: read-out: Cp(T)
[12] = Plasma clearance in Sprague-Dawley rat at 1 mg/kg, iv; format: ADME, organism-based; set-up: dose 1 mg/kg, route intravenous
Mus musculus [13] = assay: Inhibition of anti-CD3-stimulated IL2 production in po dosed BALB/c mouse administered 5 hrs before anti-CD3 challenge measured after 3 hrs; format: functional, organism-based
[14] = Terminal plasma concentration in BALB/c mouse at 1.5 mg/kg, po after 8 hrs; format: ADME, organism-based; set-up: dose 1.5 mg/kg, route oral; details: read-out: Cp(T)
[15] = Cmax in Sprague-Dawley rat at 10 mg/kg, po; format: ADME, organism-based; set-up: dose 10 mg/kg, route oral; details: in vivo
[16] = Terminal plasma concentration in BALB/c mouse at 15 mg/kg, po after 8 hrs; format: ADME, organism-based; set-up: dose 15 mg/kg, route oral; details: read-out: Cp(T)
[17] = Protein binding in plasma by dialysis method; format: ADME, cell-free; details: read-out: PPB (converted)
[18] = Solubility at pH 7; format: physicochemical; details: buffer

| IC50 [1] [µM] | IC50 (T-cell) [µM] | IC50 (Insulin receptor) [µM] | IC50 [2] [µM] | IC50 [3] [µM] | SMILES | further results |
| --- | --- | --- | --- | --- | --- | --- |
| 0.002 | 0.15 | 1.7 | 0.075 | 0.021 | CC(C)(O)Cn1c(NC(=O)c2ccc(-c3cn[nH]c3)s2)nc2cc(CNc3ccccc3)ccc21 |  |
| 0.004 |  | 1.2 | 0.9 | > 5 | CC(C)(O)Cn1c(NC(=O)c2ccc(-c3cn[nH]c3)s2)nc2cc(CN)ccc21 |  |
| 0.002 |  | 0.42 | 0.31 | 0.13 | CC(C)(O)Cn1/c(=N/C(=O)c2ccc(-c3cn[nH]c3)s2)[nH]c2cc(CN3CCC(O)C3)ccc21 (centres undefined) |  |
| 0.002 | 0.023 | 0.6 | 0.39 | 0.025 | CCC(C)NCc1ccc2c(c1)nc(NC(=O)c1ccc(-c3cn[nH]c3)s1)n2CC(C)(C)O (centres undefined) |  |
| 0.003 | 0.12 | 0.55 | 0.25 | 0.011 | CC(C)(O)Cn1/c(=N/C(=O)c2ccc(-c3cn[nH]c3)s2)[nH]c2cc(CN3CCCCC3)ccc21 |  |
| 0.002 | 0.059 | 0.48 | 0.16 | 0.013 | CN(Cc1ccc2c(c1)nc(NC(=O)c1ccc(-c3cn[nH]c3)s1)n2CC(C)(C)O)C1CCCCC1 |  |
| 0.008 | 0.18 | 0.7 | 0.94 | 0.21 | Cc1ncc(-c2ccc(C(=O)Nc3nc4cc(CNC5CCCCC5)ccc4n3CC(C)(C)O)s2)o1 |  |
|  |  | 5.5 |  |  | CN(Cc1ccc2c(c1)[nH]/c(=N\C(=O)c1ccc(-c3cn[nH]c3)s1)n2CC(C)(C)O)c1ccccc1 |  |
|  | 0.23 | 0.35 |  |  | Cc1ncc(-c2ccc(C(=O)/N=c3\[nH]c4cc(CN(C)C5CCCCC5)ccc4n3CC(C)(C)O)s2)o1 |  |
| 0.001 | 0.093 | 0.4 | 0.099 | 0.02 | CC(C)(O)Cn1c(NC(=O)c2ccc(-c3cn[nH]c3)s2)nc2cc(CNC3CCCCC3)ccc21 |  |
|  | 0.13 |  |  |  | CN(C)Cc1ccc2c(c1)[nH]/c(=N\C(=O)c1ccc(-c3cn[nH]c3)s1)n2CC(C)(C)O |  |
| 0.003 |  | 1.1 | 0.66 | 0.058 | CC(C)(O)Cn1/c(=N/C(=O)c2ccc(-c3cn[nH]c3)s2)[nH]c2cc(CN3CCCCC3CO)ccc21 (centres undefined) |  |
| 0.002 | 0.23 | 0.32 | 0.22 | 0.013 | CC(C)(O)Cn1/c(=N/C(=O)c2ccc(-c3cn[nH]c3)s2)[nH]c2cc(CN3CCOCC3)ccc21 |  |
| 0.001 | 0.05 | 0.093 | 0.02 | 0.003 | C[C@@H](NCc1ccc2c(c1)nc(NC(=O)c1ccc(-c3cn[nH]c3)s1)n2CC(C)(C)O)C(C)(C)C |  |
| 0.001 | 0.064 | 0.23 | 0.02 | 0.002 | C[C@@H](N(C)Cc1ccc2c(c1)nc(NC(=O)c1ccc(-c3cn[nH]c3)s1)n2CC(C)(C)O)C(C)(C)C |  |
|  | 0.086 | 0.36 |  |  | CC(C)CNCc1ccc2c(c1)nc(NC(=O)c1ccc(-c3cn[nH]c3)s1)n2CC(C)(C)O |  |
|  | 0.46 |  |  |  | Cc1ncc(-c2ccc(C(=O)/N=c3\[nH]c4cc(CNc5ccccc5)ccc4n3CC(C)(C)O)s2)o1 |  |
|  | 0.037 | 0.48 |  |  | CC(C)(O)Cn1/c(=N/C(=O)c2ccc(-c3cn[nH]c3)s2)[nH]c2cc(CNCc3ccccc3)ccc21 |  |
|  |  | 0.5 |  |  | CNCc1ccc2c(c1)[nH]/c(=N\C(=O)c1ccc(-c3cn[nH]c3)s1)n2CC(C)(C)O |  |
|  | 0.091 | 0.31 |  |  | CN(Cc1cccnc1)Cc1ccc2c(c1)[nH]/c(=N\C(=O)c1ccc(-c3cn[nH]c3)s1)n2CC(C)(C)O |  |
|  | 0.15 | 0.39 |  |  | CN(C)CCN(C)Cc1ccc2c(c1)[nH]/c(=N\C(=O)c1ccc(-c3cn[nH]c3)s1)n2CC(C)(C)O |  |
| 0.001 | 0.046 | 0.32 | 0.098 | 0.003 | CC1COCC(C)N1Cc1ccc2c(c1)[nH]/c(=N\C(=O)c1ccc(-c3cn[nH]c3)s1)n2CC(C)(C)O (centres undefined) |  |

| SMILES | IC50 [1] [µM] | IC50 (T-cell) [µM] | IC50 (Insulin receptor) [µM] | IC50 [2] [µM] | IC50 [3] [µM] | further results |
| --- | --- | --- | --- | --- | --- | --- |
| C[C@H](N(C)Cc1ccc2c(c1)[nH]/c(=N\C(=O)c1ccc(-c3cn[nH]c3)s1)n2CC(C)(C)O)C(C)(C)C | 0.001 | 0.018 | 0.4 | 0.008 | 0.003 | IC50 (Blood): 0.69 µM |
| C[C@H](NCc1ccc2c(c1)[nH]/c(=N\C(=O)c1ccc(-c3cn[nH]c3)s1)n2CC(C)(C)O)C(C)(C)C | 0.001 | 0.02 | 0.16 | 0.013 | 0.004 | AUC(0-inf) [4]: 659 ng·h/mL; half-life [5]: 2.5 h; IC50 (Blood): 0.24 µM; AUC(0-inf) [6]: 314 ng·h/mL; Tmax [7]: 1.2 h; bioavailability [8]: 21%; Activity (Mus musculus [9]): Dose-dependent effect; Vd [10]: 11.6 L/kg; concentration at 8 h [11]: 400 nM; clearance [12]: 53.1 mL/min/kg; Activity (Mus musculus [13]): Dose-dependent effect; concentration at 8 h [14]: 100 nM; Cmax [15]: 92 ng/mL; concentration at 8 h [16]: 1300 nM |
| Cc1ncc(-c2ccc(C(=O)Nc3nc4cc(N(C)C(=O)c5ccccc5)ccc4n3CC(C)(C)O)s2)o1 | 0.003 | 0.44 | 0.94 | 0.2 | 0.11 | IC50 (Blood): 10 µM; fraction unbound [17]: 0.013; solubility [18]: 2 µg/mL (≈ 3.78 µM) |
